In PubChem BioAssay (NCI):
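Cells were grown in 96-well plates and exposed to each compound for 48 hours at five concentrations; endpoints were interpolated linearly between bracketing concentrations, or set to the highest concentration if not reached. TGI: total growth inhibition.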

Legend:
Experiment in all cases: inhibition of tumour cell growth, NCI panel, 48 h
M19-MEL melanoma = test system: M19-MEL melanoma
SK-MEL-2 melanoma = test system: SK-MEL-2 melanoma
UACC-257 melanoma = test system: UACC-257 melanoma
RPMI-8226 leukemia = test system: RPMI-8226 leukemia
OVCAR-3 ovarian = test system: OVCAR-3 ovarian
CCRF-CEM leukemia = test system: CCRF-CEM leukemia
OVCAR-5 ovarian = test system: OVCAR-5 ovarian
SK-MEL-5 melanoma = test system: SK-MEL-5 melanoma
NCI-H23 lung = test system: NCI-H23 lung
EKVX NSCLC = test system: EKVX NSCLC
SF-268 CNS = test system: SF-268 CNS
OVCAR-4 ovarian = test system: OVCAR-4 ovarian
M14 melanoma = test system: M14 melanoma
RXF-631 renal = test system: RXF-631 renal
HL-60(TB) leukemia = test system: HL-60(TB) leukemia
NCI-H460 lung = test system: NCI-H460 lung
SNB-19 CNS = test system: SNB-19 CNS
786-0 renal = test system: 786-0 renal
HCC-2998 colon = test system: HCC-2998 colon
XF 498 CNS = test system: XF 498 CNS
NCI-H226 lung = test system: NCI-H226 lung
DMS 273 small cell lung = test system: DMS 273 small cell lung
RXF 393 renal = test system: RXF 393 renal
HCT-116 colon = test system: HCT-116 colon
TK-10 renal = test system: TK-10 renal
OVCAR-8 ovarian = test system: OVCAR-8 ovarian
UACC-62 melanoma = test system: UACC-62 melanoma
SK-OV-3 ovarian = test system: SK-OV-3 ovarian
SW-620 colon = test system: SW-620 colon
HOP-62 NSCLC = test system: HOP-62 NSCLC
HT29 colon = test system: HT29 colon
NCI-H522 lung = test system: NCI-H522 lung
KM12 colon = test system: KM12 colon
MALME-3M melanoma = test system: MALME-3M melanoma
IGROV1 ovarian = test system: IGROV1 ovarian
COLO 205 colon = test system: COLO 205 colon
CAKI-1 renal = test system: CAKI-1 renal
A498 renal = test system: A498 renal
UO-31 renal = test system: UO-31 renal
HOP-18 NSCLC = test system: HOP-18 NSCLC
DLD-1 colon = test system: DLD-1 colon
KM20L2 colon = test system: KM20L2 colon
A549 NSCLC = test system: A549 NSCLC
SNB-78 CNS = test system: SNB-78 CNS
K-562 leukemia = test system: K-562 leukemia
SF-539 CNS = test system: SF-539 CNS
SNB-75 CNS = test system: SNB-75 CNS
U251 CNS = test system: U251 CNS
HOP-92 NSCLC = test system: HOP-92 NSCLC
LOX IMVI melanoma = test system: LOX IMVI melanoma
SF-295 CNS = test system: SF-295 CNS
SK-MEL-28 melanoma = test system: SK-MEL-28 melanoma
LXFL 529 NSCLC = test system: LXFL 529 NSCLC
DMS 114 small cell lung = test system: DMS 114 small cell lung
HCT-15 colon = test system: HCT-15 colon
ACHN renal = test system: ACHN renal
SN12C renal = test system: SN12C renal
SR leukemia = test system: SR leukemia
MOLT-4 leukemia = test system: MOLT-4 leukemia

Measured: TGI

O=C(O)C(CO)N=Cc1nc(-c2ccccc2)oc1O (configuration not stated)
> 100 µM: M19-MEL melanoma | SK-MEL-2 melanoma | UACC-257 melanoma | RPMI-8226 leukemia | OVCAR-3 ovarian | CCRF-CEM leukemia | OVCAR-5 ovarian | SK-MEL-5 melanoma | NCI-H23 lung | EKVX NSCLC | SF-268 CNS | OVCAR-4 ovarian | M14 melanoma | RXF-631 renal | HL-60(TB) leukemia | NCI-H460 lung | SNB-19 CNS | 786-0 renal | HCC-2998 colon | XF 498 CNS | NCI-H226 lung | DMS 273 small cell lung | RXF 393 renal | HCT-116 colon | TK-10 renal | OVCAR-8 ovarian | UACC-62 melanoma | SK-OV-3 ovarian | SW-620 colon | HOP-62 NSCLC | HT29 colon | NCI-H522 lung | KM12 colon | MALME-3M melanoma | IGROV1 ovarian | COLO 205 colon | CAKI-1 renal | A498 renal | UO-31 renal | HOP-18 NSCLC | DLD-1 colon | KM20L2 colon | A549 NSCLC | SNB-78 CNS | K-562 leukemia | SF-539 CNS | SNB-75 CNS | U251 CNS | HOP-92 NSCLC | LOX IMVI melanoma | SF-295 CNS | SK-MEL-28 melanoma | LXFL 529 NSCLC | DMS 114 small cell lung | HCT-15 colon | ACHN renal

O=C(Nc1cc(Cl)c(Cl)cc1Cl)C(=O)C(C(=O)c1ccccc1)C1OC(=O)c2ccccc21 (configuration not stated)
> 100 µM: M19-MEL melanoma | UACC-257 melanoma | RPMI-8226 leukemia | SN12C renal | OVCAR-3 ovarian | CCRF-CEM leukemia | SR leukemia | OVCAR-5 ovarian | NCI-H23 lung | EKVX NSCLC | SF-268 CNS | OVCAR-4 ovarian | M14 melanoma | RXF-631 renal | HL-60(TB) leukemia | NCI-H460 lung | SNB-19 CNS | 786-0 renal | HCC-2998 colon | XF 498 CNS | NCI-H226 lung | DMS 273 small cell lung | RXF 393 renal | HCT-116 colon | TK-10 renal | OVCAR-8 ovarian | UACC-62 melanoma | SK-OV-3 ovarian | SW-620 colon | HOP-62 NSCLC | HT29 colon | NCI-H522 lung | KM12 colon | MOLT-4 leukemia | MALME-3M melanoma | IGROV1 ovarian | COLO 205 colon | CAKI-1 renal | A498 renal | UO-31 renal | HOP-18 NSCLC | DLD-1 colon | KM20L2 colon | A549 NSCLC | SNB-78 CNS | K-562 leukemia | SNB-75 CNS | U251 CNS | HOP-92 NSCLC | LOX IMVI melanoma | SF-295 CNS | SK-MEL-28 melanoma | LXFL 529 NSCLC | DMS 114 small cell lung | HCT-15 colon | ACHN renal
